From patent US20240293400A1, “NOVEL AZAINDOLE DERIVATIVES AS ANTIVIRAL AGENTS” (Centre National de la Recherche Scientifique, priority 2021, published 2024)

Legend:
FLT3 = FLT3 (Homo sapiens (Human), UniProt P36888); assay: IC50 determination on kinase FLT3 (SelectScreen); format: biochemical; conditions: 10 concentrations between 100 nM and 0.00495 nM
Procedure: FIG. 2: Determination of the IC50 of compounds 1, 2 and 3 with respect to the inhibition of the kinase Axl and of the kinase FLT3. 10 concentrations of the compound were prepared by serial dilutions. The compounds are screened in DMSO at 1% final. The kinases were diluted in a concentrated concentration twice in kinase buffer. All the ATP solutions were diluted in a 4-fold concentrated working concentration (50 mM HEPES pH 7.5, 0.01% BRIJ-35, 10 mM MgCl2, 1 mM EGTA). Each compound was incubated at 10 concentrations between 100 nM and 0.00495 nM in order to calculate the IC50. The IC50 are indicated: a) results of compound 1; b) results of compound 2; c) results of compound 3.
The inhibitory activity of the compounds on a panel of kinases including, inter alia, AXL and FLT3 was evaluated by Thermo Fisher Scientific using Z′-LYTE® and Adapta® Select Screen technology.
The fluorescence-based biochemical test uses coupled enzymes and is based on the difference in sensitivity of the phosphorylated and non-phosphorylated peptides to proteolytic cleavage. The peptide substrate is labeled with 2 fluorophores—one at each end—allowing fluorescence transfer (FRET).
To calculate the IC50 inhibition of Axl and FLT3 by the compounds of the invention, 10 concentrations of each compound 1, 2 and 3 were prepared by 1/3 serial dilutions from the starting concentration. The Axl or FLT3 kinases were diluted at a two-fold concentration in kinase buffer. All the ATP solutions are diluted in a 4-fold working concentration (50 mM HEPES PH 7.5, 0.01% BRIJ-35, 10 mM MgCl2, 1 mM EGTA).
Each compound is incubated at 10 concentrations between 100 nM and 0.00495 nM in order to calculate the IC50.

[1] = test system: SARS-COV-2 virus, BetaCoV/France/IDF0371/2020; assay: Anti-SARS-COV-2 activity in A549-ACE2 cells; format: cell-based; conditions: MOI=0.01, 24 hours, qRT-PCR; for infection of the A549-ACE2 cells by the SARS-COV-2 virus: 1.25 μM; for IC50: A549-ACE2 cells
SARS-COV-2 = assay: Anti-SARS-COV-2 activity in primary human bronchial epithelium model (MucilAir); format: cell-based; conditions: 1.25 μM, 24 hours, qRT-PCR
WNV virus, Kunjin strain = assay: Antiviral activity against the WNV virus, Kunjin strain in HeLa cells; format: cell-based; conditions: summary table

Sequence of FLT3 (P36888 27-993): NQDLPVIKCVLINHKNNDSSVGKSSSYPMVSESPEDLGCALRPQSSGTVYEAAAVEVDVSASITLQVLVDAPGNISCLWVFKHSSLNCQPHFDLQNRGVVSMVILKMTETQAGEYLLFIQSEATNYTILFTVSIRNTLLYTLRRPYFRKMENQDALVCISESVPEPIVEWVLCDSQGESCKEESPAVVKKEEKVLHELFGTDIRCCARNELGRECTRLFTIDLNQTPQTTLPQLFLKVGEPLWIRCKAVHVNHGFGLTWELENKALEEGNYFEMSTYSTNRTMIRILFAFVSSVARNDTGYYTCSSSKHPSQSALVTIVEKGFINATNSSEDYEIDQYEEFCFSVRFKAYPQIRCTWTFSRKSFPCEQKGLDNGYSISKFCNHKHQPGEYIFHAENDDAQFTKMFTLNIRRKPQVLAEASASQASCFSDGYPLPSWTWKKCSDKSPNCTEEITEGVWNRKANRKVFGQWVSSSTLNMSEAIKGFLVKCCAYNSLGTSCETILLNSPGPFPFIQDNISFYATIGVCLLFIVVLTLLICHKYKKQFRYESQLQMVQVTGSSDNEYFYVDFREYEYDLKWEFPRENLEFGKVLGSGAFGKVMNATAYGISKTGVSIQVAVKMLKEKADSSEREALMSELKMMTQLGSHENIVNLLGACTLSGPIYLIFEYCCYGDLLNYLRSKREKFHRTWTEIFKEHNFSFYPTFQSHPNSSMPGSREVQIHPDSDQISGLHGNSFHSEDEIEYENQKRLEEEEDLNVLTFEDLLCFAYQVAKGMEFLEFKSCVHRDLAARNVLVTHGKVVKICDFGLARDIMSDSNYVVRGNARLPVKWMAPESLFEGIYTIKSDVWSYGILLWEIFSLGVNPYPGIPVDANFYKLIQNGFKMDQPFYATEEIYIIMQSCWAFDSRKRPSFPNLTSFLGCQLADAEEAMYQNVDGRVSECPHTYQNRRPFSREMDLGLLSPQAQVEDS

With `CN1CCN(Cc2cccc(-c3cnc4[nH]cc(-c5cc(CNCCc6ccc(O)cc6)ccc5F)c4c3)c2)CC1` [Compound 1] the IC50 (FLT3) was 0.0025 µM, the “infection of the A549-ACE2 cells by the SARS-COV-2 virus” value (“infection of the A549-ACE2 cells” below) [1] was “prevent the infection” and the IC50 [1] was 0.019 µM. The “infection of the primary bronchial epithelium by SARS-COV-2” value (SARS-COV-2) was “inhibits the infection” and the “active on infectious model KUNV” value (WNV virus, Kunjin strain) was “ACTIVE”.
With `CN1CCN(Cc2cccc(-c3cnc4[nH]cc(-c5cc(CNCc6ccccc6)ccc5F)c4c3)c2)CC1` [Compound 2] the IC50 (FLT3) was 0.00233 µM, the “infection of the A549-ACE2 cells” value [1] was “prevent the infection” and the IC50 [1] was 0.057 µM. For the same compound, the “active on infectious model KUNV” value (WNV virus, Kunjin strain) was “ACTIVE”.
`CN1CCN(Cc2cccc(-c3cnc4[nH]cc(-c5cc(NC(=O)Nc6ccccc6)ccc5F)c4c3)c2)CC1` [Compound 3] was tested, and the IC50 (FLT3) was 0.0482 µM, the “infection of the A549-ACE2 cells” value [1] was “prevent the infection” and the IC50 [1] was 0.038 µM.
